Source: ChEMBL document CHEMBL1121542, “Beta-adrenergic blocking agents. 20. (3-Hydroxyprop-1-enyl)-substituted 1-(aryloxy)-3-(alkylamino)propan-2-ols” (J Med Chem, 1980)
The source made the active and inactive calls. The rule behind the calls is not given here.

Columns and labels:
[1] = system: Adrenergic receptor beta; test: Compound was evaluated in vivo for beta-Adrenoceptor blocking potency in cat and is expressed as total dose, infused over a period of 30 minutes, causing 50% inhibition of the tachycardia (iv administration); NA means not active; type: functional, organism-based; settings: Felis catus
[2] = molecular target: Adrenergic receptor beta (Homo sapiens) (UniProt P08588+P07550+P13945); test: Compound was evaluated in vivo for beta-Adrenoceptor blocking potency in cat measured as the degree (percent) of blockade of the vasopressor response at the dose level; type: functional, organism-based; settings: Felis catus; target entry is the homologue from another species

Row | Structure (SMILES) | Inhibition [1] | Inhibition [2] [%]
1 | C=CCc1cc(/C=C/CO)ccc1OCC(O)CNC(C)(C)C (stereo not given) | inactive | –
2 | COc1ccc(/C=C/CO)cc1OCC(O)CNC(C)C (stereo not given) | inactive | –
3 | CCOc1cc(/C=C/CO)ccc1OCC(O)CNC(C)C (stereo not given) | inactive | –
4 | CC(C)(C)NCC(O)COc1ccc(/C=C/CO)cc1Cl (stereo not given) | – | 76
5 | CC(C)NCC(O)COc1cc(/C=C/CO)ccc1Br (stereo not given) | inactive | –
